Measurements reported in patent publication US20250025445A1, “METHOD OF CARDIOPROTECTION” (Race Oncology LTD., priority 2021, published 2025).
Read-outs that look alike come from different tables or passages of the source.

Key:
[1] = test system: Primary Human Cardiac Myocytes (HCMs); assay: Primary human cardiomyocyte cell viability (CellTiter-Glo); format: cell-based
Experimental: Primary Human Cardiac Myocytes (HCMs) were purchased from PromoCell® (Heidelberg, Germany) and cultured according to manufacturer's recommendations using PromoCell® Myocyte growth media (5% [v/v] foetal calf serum, 0.5 ng/ml recombinant human epidermal growth factor, 2 ng/ml recombinant human basic fibroblast growth factor, 5 μg/ml recombinant human insulin) supplemented with 1% [v/v] Penicillin-Streptomycin [Sigma-Aldrich]). Briefly, 1×10^6 HCMs were seeded and grown in Corning® T75 flasks (Sigma-Aldrich, New South Wales, Australia) in an incubator at 37° C. under 5% CO2 conditions. At 80-90% confluency, HCMs were gently detached using the DetachKit (PromoCell®), collected into Corning® 50 mL centrifuge tubes (Sigma-Aldrich), and centrifuged at 300×g for 10 mins at room temperature. The resulting supernatant were discarded and HCM pellet was resuspended with 5-10 mL of pre-warmed Myocyte Growth Medium. Total viable cells were enumerated with Invitrogen™ Countess Cell Counter (Thermo Fisher Scientific, New South Wales, Australia) and 1×10^5 live HCMs were seeded in triplicate into Corning® 96-well white polystyrene microplate (Sigma).
(§1) Dox, Dauno and Epi, were dissolved in sterile water to make a stock concentration of 20 mM, respectively, while Tz was dissolved in sterile PBS to a stock concentration of 100 μM. […] The concentrations were as follows 0 nM, 15.62 nM, 62.5 nM, 250 nM, 500 nM, 1 μM, 5 μM, and 10 μM. […] Vehicle controls were incubated with media supplemented with either sterile water or DMSO. […] This was repeated at 48 hours and 72 hours. […] Both FB23/2 and brequinar (MedChemExpress) were dissolved in dimethyl sulfoxide (DMSO; Sigma-Aldrich) to make a stock concentration of 40 mM and 20 mM respectively.

MCF7 breast cancer cells = assay: MCF7 breast cancer cell viability (CellTiter-Glo); format: cell-based, human; conditions: 72 hours
Experimental: Human breast adenocarcinoma (MCF7) cells were purchased from In Vitro Technologies (Victoria, Australia) and cultured according to manufacturer's recommendations using MCF7 growth media, Low glucose Dulbecco's Modified Eagle's medium (DMEM; Sigma-Aldrich, Australia) supplemented with 10% (v/v) foetal calf serum (Sigma-Aldrich) and 1% (v/v) Penicillin-Streptomycin (Sigma-Aldrich). Briefly, 1×10^6 MCF7 were seeded and grown in Corning® T75 flasks (Sigma-Aldrich) in an incubator at 37° C. under 5% CO2 conditions. At 80-90% confluency, MCF7 were washed with Dulbecco's Phosphate Buffered Saline (Sigma-Aldrich) for 30s at room temperature and followed by incubation with Trypsin-EDTA (Sigma-Aldrich) for 5 mins at 37° C. under 5% CO2 conditions. Trypsin solution was then neutralised with 1:1 volume of MCF7 growth media. The cell suspensions were then collected into Corning® 50 mL centrifuge tubes (Sigma-Aldrich) and centrifuged at 300×g for 10 mins at room temperature. The resulting supernatants were discarded and MCF7 pellets were resuspended with 5-10 mL of pre-warmed MCF7 growth media. Total viable cells were enumerated with Invitrogen™ Countess Cell Counter (Thermo Fisher Scientific, New South Wales, Australia) and 9×10^4 live MCF7 were seeded in triplicate into Corning® 96-well white polystyrene microplate (Sigma).
as §1

[2] = test system: H929 multiple myeloma cells; assay: H929 multiple myeloma cell viability (CellTiter-Glo); format: cell-based, human; conditions: 72 hours, FIG. 4
Experimental: Human multiple myeloma NCI-H929 cells were cultured using RPMI-1640 growth media (Sigma-Aldrich), supplemented with 2 mM L-glutamine (Thermo Fisher Scientific), 10% (v/v) foetal calf serum (Sigma-Aldrich) and 0.05 mM 2-mercaptoethanol (Sigma-Aldrich). Briefly, 0.5×10^6 H929 were seeded and grown in Corning® T75 flasks (Sigma-Aldrich) in an incubator at 37° C. under 5% CO2 conditions. At 80-90% confluency, the cell suspension was then collected into Corning® 50 mL centrifuge tubes (Sigma-Aldrich) and centrifuged at 300×g for 10 mins at room temperature. The resulting supernatant were discarded and H929 pellet was resuspended with 5-10 mL of pre-warmed H929 growth media. Total viable cells were enumerated with Invitrogen™ Countess Cell Counter (Thermo Fisher Scientific, New South Wales, Australia) and 1×10^4 live H929 were seeded in triplicate into Corning® 96-well white polystyrene microplate (Sigma). […] The concentrations were as follows 0 nM, 15.62 nM, 62.5 nM, 250 nM, 500 nM, 1 μM, 5 μM, and 10 μM. […] Vehicle controls were incubated with media supplemented with either sterile water or DMSO. […] This was repeated at 48 hours and 72 hours. […] Both FB23/2 and brequinar (MedChemExpress) were dissolved in dimethyl sulfoxide (DMSO; […]

[3] = test system: MDA-MB-231 breast cancer cells; assay: MDA-MB-231 breast cancer cell viability with Webb synergy analysis; format: cell-based, human
Experimental: Human breast cancer cell line NDA-MB-231 was cultured in a humidified chamber at 37° C. with 5% CO2 in DMEM supplemented with 10% foetal bovine serum (FBS), 2 mM L-glutamine and 2% HEPES. Cells were maintained adherent.

[4] = Doxorubicin cardiotoxicity in mice: histologic cardiac fibrosis; format: in vivo; conditions: bisantrene co-administered with doxorubicin at 1:1 molar ratio; Day 21; relative to matched doses of doxorubicin
Text: In particular, well established cardiotoxicity markers, including left ventricular fractional shortening, heart E/A ratio, left ventricular diastolic function, left ventricular dilatation, cardiac output, plasma triglyceride levels, plasma creatine kinase-MB (CK-MB), plasma LDH (lactate dehydrogenase) and plasma brain natriuretic peptide (BNP) were monitored over a period of up to 42 days following the start of treatments delivered weekly, four times (and therefore final treatment on day 21).
Treatments were delivered to mice intravenously on days 0, 7, 14 and 21. Mice underwent echocardiography measurements at days 0, 21 and 42 to determine LVEF, FS, EDV, ESV, CO, E wave, A wave, E′, E/A, and E/E′, and blood samples were taken at days 0, 21 and 42 to assay for cardiac troponin I levels, BNP levels, CK, LDH levels and triglycerides.

[5] = test system: colon 26, Lewis lung, Ridgway osteosarcoma, B16, Lieberman plasma cell, P388 or L1210 cancer cells; conditions: cited from earlier work
[6] = test system: tumor cells from 684 patients; conditions: breast, small cell lung, large cell lung, squamous cell lung, ovarian, pancreatic, renal, adrenal, head and neck, sarcoma, gastric, lymphoma and melanoma tumor cells; cited from earlier work
[7] = bisantrene 3.67 mg/kg + doxorubicin 5 mg/kg (Dox+Bis 1:1)
[8] = bisantrene 5.65 mg/kg + doxorubicin 4 mg/kg (Dox+Bis 80% of 1:2)

C(=NNC1=NCCN1)c1c2ccccc2c(C=NNC2=NCCN2)c2ccccc12 [bisantrene, 9,10-anthracenedicarboxaldehyde bis [(4,5-dihydro-1H-imidazol-2-yl)hydrazone]]
protection of cardiomyocytes against toxicity of CFZ ([1]; 0-5 μM bisantrene with 1 μM carfilzomib, 24, 48, 72 hrs, FIG. 1): concentration-dependent protection
protection of cardiomyocytes against toxicity of Dox ([1]; 0-5 μM bisantrene with 1 μM doxorubicin, 24, 48, 72 hrs, FIG. 1): concentration-dependent protection
rescue of bortezomib cardiomyocyte toxicity ([1]; 1 μM bisantrene coadministered with bortezomib, 72 hours, FIG. 7): significant rescue of cardiomyocyte toxicity
rescue of carfilzomib cardiomyocyte toxicity ([1]; 1 μM bisantrene coadministered with carfilzomib, 72 hours, FIG. 7): significant rescue of cardiomyocyte toxicity
rescue of daunorubicin cardiotoxicity on cardiomyocytes ([1]; 1 μM bisantrene with 1 μM daunorubicin, 72 hours, FIG. 5): cardiotoxicity rescue effects
rescue of epirubicin cardiotoxicity on cardiomyocytes ([1]; 1 μM bisantrene with 1 μM epirubicin, 72 hours, FIG. 6): a trend toward statistical significance
effect on combined toxicity of doxorubicin and trastuzumab to cardiomyocytes ([1]; 1 or 5 μM bisantrene with 1 μM doxorubicin and 500 nM trastuzumab, FIG. 2): reduced the combined toxicity
effect of increasing bisantrene on loss of cardiomyocyte viability with doxorubicin alone ([1]; 1 or 5 μM bisantrene with 1 μM doxorubicin, FIG. 2): reduced loss of viability
toxicity (loss in cell viability) to cardiomyocytes ([1]; agent alone (1 μM doxorubicin, 1 μM carfilzomib, 0-5 μM bisantrene), 24 hrs, 48 hrs and 72 hrs, FIG. 1): mild progressive toxicity
toxicity to MCF7 breast cancer cells (MCF7 breast cancer cells; 0-10 μM bisantrene alone, FIG. 3): concentration-dependent toxicity
interference with toxicity of carfilzomib to MCF7 cells (MCF7 breast cancer cells; 0-10 μM bisantrene with 1 μM carfilzomib, FIG. 3): did not interfere with the toxicity
combined toxicity of bisantrene with doxorubicin or carfilzomib to MCF7 cells (MCF7 breast cancer cells; 0-10 μM bisantrene with 1 μM doxorubicin or 1 μM carfilzomib): additive toxicity
interference with toxicity of doxorubicin to MCF7 cells (MCF7 breast cancer cells; 0-10 μM bisantrene with 1 μM doxorubicin, FIG. 3): did not interfere with the toxicity
toxicity to H929 multiple myeloma cells ([2]; 0-5 μM bisantrene alone): concentration-dependent toxicity
interference with toxicity of carfilzomib to H929 cells ([2]; 0-5 μM bisantrene with 1 μM carfilzomib): did not interfere with the toxicity
toxic effects against MDA-MB-231 breast cancer cells ([3]; bisantrene alone, FIGS. 8 to 10): concentration-dependent toxic effects
combined effect with carfilzomib on MDA-MB-231 cells ([3]; bisantrene with carfilzomib, Webb synergy analysis, FIG. 10C): at least additive to, if not synergistic with
combined effect with doxorubicin on MDA-MB-231 cells ([3]; bisantrene with doxorubicin, Webb synergy analysis, FIGS. 8, 10A): at least additive to, if not synergistic with
combined effect with epirubicin on MDA-MB-231 cells ([3]; bisantrene with epirubicin, Webb synergy analysis, FIGS. 9, 10B): at least additive to, if not synergistic with
histologic cardiac fibrosis [4]: significantly decreased
mitigation of doxorubicin cardiotoxicity: cardiac output [7]: mitigation of doxorubicin cardiotoxicity
mitigation of doxorubicin cardiotoxicity: left ventricular diastolic function [7]: appeared to mitigate the cardiotoxic effects
mitigation of doxorubicin cardiotoxicity: left ventricular dilatation [7]: appeared to mitigate the cardiotoxic effects
mitigation of doxorubicin cardiotoxicity: left ventricular fractional shortening [7]: significantly mitigated
mitigation of doxorubicin cardiotoxicity: cardiac output [8]: even less effect
mitigation of doxorubicin cardiotoxicity: left ventricular fractional shortening [8]: less effect
mitigation of doxorubicin cardiotoxicity: left ventricular fractional shortening (bisantrene 7.33 mg/kg + doxorubicin 5 mg/kg (Dox+Bis 1:2)): significantly mitigated
mitigation of doxorubicin cardiotoxicity: cardiac output (bisantrene 7.33 mg/kg + doxorubicin 5 mg/kg (Dox+Bis 1:2), compared to Dox+Bis 1:1): mitigation of doxorubicin cardiotoxicity was slightly greater
cardiac output (bisantrene 7.33 mg/kg alone): suggestion (but not significant) of mild deleterious effects
left ventricular diastolic function (bisantrene 7.33 mg/kg alone): suggestion (but not significant) of mild deleterious effects
left ventricular dilatation (bisantrene 7.33 mg/kg alone): suggestion (but not significant) of mild deleterious effects
left ventricular fractional shortening (bisantrene 7.33 mg/kg alone, i.v. days 0, 7, 14, 21): suggestion (but not significant) of mild deleterious effects
effectiveness in cancer models [5]: effective
activity in clonogenic assays [6]: Activity in clonogenic assays from 684 patients was seen
